In publication PMC9127750, “Structure-based design of CDC42 effector interaction inhibitors for the treatment of cancer” (Cell reports, 2022):

System: WM3248 melanoma cells, 486 antibodies
Assay: Reverse phase protein arrays (RPPA);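 for Cyclin.B1.R.V RPPA level: ratio of treated to vehicle (0 µM) normalized linear protein signal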;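 for Cyclin.E1.R.V RPPA level: ratio of treated to vehicle (0 µM) normalized linear protein signal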;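 for DDB.1.R.V RPPA level: ratio of treated to vehicle (0 µM) normalized linear protein signal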;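 for RPPA ACC1.R.C: ratio of treated to vehicle (0 µM) normalized linear protein signal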;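 for RPPA ASNS.R.V: ratio of treated to vehicle (0 µM) normalized linear protein signal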;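 for RPPA AceCS1.R.V: ratio of treated to vehicle (0 µM) normalized linear protein signal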;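 for RPPA Akt1.R.V: ratio of treated to vehicle (0 µM) normalized linear protein signal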;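 for RPPA Atg5.R.C: ratio of treated to vehicle (0 µM) normalized linear protein signal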;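 for RPPA Bim.R.V: ratio of treated to vehicle (0 µM) normalized linear protein signal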
Assay type: cell-based, Human
Details: 20 uM, Average
From the text: Pellets were snap frozen in liquid nitrogen and shipped to MD Anderson Cancer Center core RPPA facility for RPPA analysis (Table S5). Three biological replicates for each sample were generated.
Nomenclatures on the RPPA heatmaps: name_of_antibody.species_of_antibody.status_of_antibody. V - antibody validated; C - validation of antibody in progress; Q - antibody nonspecific; E – under evaluation; antibodies raised in M - mouse, G - goat, R - rabbit, or T - rat.

CN(C)c1cccc(Nc2cc(-c3ccccc3)nc(C3CCNCC3)n2)c1 [ARN22089, N1,N1-dimethyl-N3-(6-phenyl-2-(piperidin-4-yl)pyrimidin-4-yl)benzene-1,3-diamine]
Caspase.8.cleaved.R.C RPPA level: 1.025 | Caveolin.1.R.V RPPA level: 0.842 | Cdc6.R.V RPPA level: 0.862 | Cdc42.R.C RPPA level: 1.017 | Chk1.M.C RPPA level: 0.898 | Chk1_pS345.R.C RPPA level: 1.107 | Chk2_pT68.R.C RPPA level: 1.241 | Complex.II.Subunit.M.V RPPA level: 0.945 | Coup.TFII.R.C RPPA level: 0.941 | Cox2.R.C RPPA level: 1.267 | Cox.IV.R.V RPPA level: 0.997 | CtIP.R.V RPPA level: 0.950 | Cyclin.B1.R.V RPPA level: 1.134 | Cyclin.D3.M.V RPPA level: 0.840 | Cyclin.E1.R.V RPPA level: 0.959 | Cyclophilin.F.M.V RPPA level: 0.926 | D.a.Tubulin.R.V RPPA level: 1.029 | DAPK1_pS308.M.C RPPA level: 1.208 | DAPK2.R.C RPPA level: 1.003 | DDB.1.R.V RPPA level: 0.948 | DDR1.R.V RPPA level: 1.002 | DDR1_pY513.R.C RPPA level: 1.125 | DJ1.R.V RPPA level: 0.948 | DM.Histone.H3.R.V RPPA level: 2.021 | DM.K9.Histone.H3.M.V RPPA level: 1.447 | DNA.Ligase.IV.R.C RPPA level: 0.981 | DNA_POLG.R.V RPPA level: 1.025 | RPPA A.Raf.R.V: 1.015 | RPPA A.Raf_pS299.R.C: 1.034 | RPPA ACC1.R.C: 0.857 | RPPA ACLY_pS455.R.V: 1.046 | RPPA ACSL1.R.V: 0.954 | RPPA ACVRL1.R.C: 1.002 | RPPA ADAR1.M.V: 1.149 | RPPA ALKBH5.R.V: 1.061 | RPPA AMPK.a2_pS345.R.V: 1.050 | RPPA AMPKa.R.C: 1.055 | RPPA AMPKa_pT172.R.C: 2.324 | RPPA AR.R.V: 1.058 | RPPA ARID1A.R.C: 1.550 | RPPA ASNS.R.V: 0.982 | RPPA ATM.R.V: 0.922 | RPPA ATM_pS1981.R.V: 1.048 | RPPA ATP5A.M.C: 1.010 | RPPA ATR.R.V: 0.999 | RPPA ATRX.R.C: 1.085 | RPPA ATR_pS428.R.C: 1.058 | RPPA AceCS1.R.V: 0.988 | RPPA Akt1.R.V: 0.884 | RPPA Akt1_pS473.R.V: 1.015 | RPPA Akt2.R.V: 0.884 | RPPA Akt2_pS474.R.C: 1.034 | RPPA Akt.R.V: 0.924 | RPPA Akt_pS473.R.V: 0.837 | RPPA Ambra1_pS52.R.C: 1.060 | RPPA Annexin.I.M.V: 0.985 | RPPA Annexin.VII.M.V: 0.970 | RPPA Atg3.R.V: 0.967 | RPPA Atg4B.R.C: 0.915 | RPPA Atg5.R.C: 0.922 | RPPA Atg7.R.V: 0.846 | RPPA Aurora.A.R.C: 1.195 | RPPA Aurora.ABC_pT288_pT232_pT198.R.C: 0.954 | RPPA Aurora.B.R.V: 1.362 | RPPA Axl.R.V: 0.993 | RPPA B7.H3.R.C: 0.942 | RPPA B7.H4.R.C: 0.993 | RPPA B.Raf.R.C: 0.957 | RPPA BAP1.M.V: 0.964 | RPPA BCL2A1.R.V: 1.025 | RPPA BMK1.Erk5_pT218_Y220.R.V: 0.950 | RPPA BRCA1.M.C: 1.124 | RPPA BRD4.R.V: 1.303 | RPPA Bak.R.C: 1.033 | RPPA Bax.R.V: 1.025 | RPPA Bcl2.R.C: 1.107 | RPPA Bcl.xL.R.V: 1.064 | RPPA Beclin.R.C: 0.977 | RPPA BiP.GRP78.M.C: 0.989 | RPPA Bid.R.C: 0.971 | RPPA Bim.R.V: 1.023 | RPPA DNMT1.R.V: 0.908 | RPPA DRP1.R.V: 0.953 | RPPA DUSP4.R.V: 0.738 | RPPA DUSP6.R.C: 1.449 | RPPA DYRK1B.R.C: 1.005 | RPPA Dvl3.R.V: 1.056 | RPPA E2F1.R.V: 1.239 | RPPA E.Cadherin.R.V: 0.959 | RPPA EGFR.R.V: 1.079 | RPPA EGFR_pY1068.R.C: 0.971 | RPPA EMA.M.C: 0.929 | RPPA ENY2.M.C: 0.931 | RPPA ER.a.R.V: 0.988 | RPPA ER.a_pS118.R.V: 1.453 | RPPA ERCC1.R.C: 1.065 | RPPA ERCC5.R.C: 1.014 | RPPA ERRalpha.R.V: 1.009 | RPPA Elk1_pS383.R.C: 1.100 | RPPA Enolase.1.R.V: 0.939 | RPPA Enolase.2.R.V: 0.991 | RPPA EphA2.R.V: 0.816 | RPPA EphA2_pS897.R.C: 0.726 | RPPA EphA2_pY588.R.C: 1.016 | RPPA Erk5.R.V: 0.946 | RPPA Ets.1.R.V: 1.154 | RPPA FABP5.R.C: 1.025 | RPPA FAK.R.C: 1.003 | RPPA FAK_pY397.R.V: 1.007 | RPPA FANCD2.R.V: 0.924 | RPPA FASN.R.V: 0.845 | RPPA FGF.basic.R.C: 0.992 | RPPA FOXM1.R.V: 1.057 | RPPA FOXO3.R.V: 1.019 | RPPA FRS2.alpha_pY196.R.V: 1.009 | RPPA FTO.R.V: 0.977 | RPPA Fibronectin.R.V: 0.989 | RPPA FoxO3a_pS318_S321.R.C: 1.005 | RPPA G6PD.R.V: 0.983 | RPPA GATA6.R.V: 0.981 | RPPA GCLC.R.C: 0.993 | RPPA GCLM.R.V: 0.999 | RPPA GCN5L2.R.V: 1.002 | RPPA GRB2.R.V: 0.956 | RPPA GSK.3B.R.C: 0.901 | RPPA GSK.3a.b.M.V: 0.957 | RPPA GSK.3a.b_pS21_S9.R.V: 1.052 | RPPA Gli1.R.C: 0.953 | RPPA Gli3.R.C: 1.116 | RPPA Glucocorticoid.Receptor.R.V: 1.130 | RPPA Glutaminase.R.C: 1.024 | RPPA Grp75.R.C: 1.172 | RPPA Gys.R.V: 1.003 | RPPA Gys_pS641.R.V: 0.884 | RPPA H2AX_pS139.R.C: 1.441 | RPPA H2AX_pS140.M.C: 1.148 | RPPA HER2.M.V: 0.983 | RPPA HER2_pY1248.R.V: 1.026 | RPPA HER3.R.V: 0.916 | RPPA HER3_pY1289.R.C: 1.009 | RPPA HES1.R.V: 1.049 | RPPA Heregulin.R.V: 1.013 | RPPA X4E.BP1.R.V: 1.246 | RPPA X4E.BP1_pS65.R.V: 0.859 | RPPA X4E.BP1_pT37_T46.R.V: 0.868 | RPPA X14.3.3.zeta.R.V: 0.922 | RPPA X14.3.3βR.V: 1.078 | RPPA X14.3.3εM.C: 0.929 | RPPA X53BP1.R.V: 1.047 | RPPA b.Actin.R.C: 1.098 | RPPA b.Catenin.R.V: 0.957 | RPPA c.Abl.R.V: 1.129 | RPPA c.Abl_pY412.R.C: 1.034 | RPPA c.IAP2.R.C: 1.063 | RPPA eEF2K.R.V: 1.262 | RPPA eIF4E.R.V: 1.164 | RPPA eIF4E_pS209.R.V: 1.101 | RPPA eIF4G.R.C: 1.116 | RPPA level HLA.DQA1.R.V: 1.019 | RPPA level HLA.DR.DP.DQ.DX.R.C: 1.117 | RPPA level HNRNPK.R.V: 1.028 | RPPA level HSP27.M.C: 0.864 | RPPA level HSP60.R.V: 1.000
